The source of these data is patent US20110098296A1, “Thiazole And Oxazole Kinase Inhibitors” (priority 2007, published 2011).

Counter-ions that a name gives are not always drawn.

One experiment has as its target T1, EGFR (Homo sapiens, UniProt P00533).
T1 construct: made in house; host or cells: baculovirus expression system
Description: EGFR substrate phosphorylation assay (HTRF). The format is biochemical. On the procedure:
(§1) Compounds of the present invention were tested for EGFR and ErbB-2 protein tyrosine kinase inhibitory activity in substrate phosphorylation assays using enzymes purified from a baculovirus expression system. Reagent production was conducted essentially as described in Brignola, P. S., et al., (2002) J. Biol. Chem. 277(2):1576-1585.
(§2) The method measures the ability of the isolated enzyme to catalyse the transfer of the gamma-phosphate from ATP onto the tyrosine residue of a biotinylated synthetic peptide referenced “Peptide C” in Brignola, P. S., et al., (2002) J. Biol. Chem. 277(2):1576-1585. The extent of tyrosine phosphorylation was measured using an anti-phosphotyrosine antibody, and quantified by homogenous time-resolved fluorescence (HTRF).
(§3) Reactions were performed in black 384-well polystyrene flat-bottom plates in a final volume of 20 μl. Assays were performed by adding 10 μl of each of the following solutions, Substrate Mix and Enzyme Mix: The Substrate Mix contained 100 mM 3-[N-morpholino]propanesulfonic acid (MOPS) (pH 7.5), 2 mM MnCl2, 20 μM ATP, 0.01% Tween-20, 0.1 mg/mL (BSA), 0.8 uM peptide substrate, and 1 mM dithiothreitol. The Enzyme Mix contained 100 mM MOPS (pH 7.5); 0.01% Tween-20; 0.1 mg/mL BSA, and either 0.8 nM EGFR, 10 nM ErbB2, or 1 nM ErbB4
(§4) During the course of these studies, two separate methods have been used to measure the potency of compounds. In Method A (indicated as “(A)” in the tables below), the Enzyme Mix was added to the compound plates and the plates were incubated at 20° C. for 1 hr. The reactions were then started by adding the Substrate Mix. In Method B (indicated as “(B)” in the tables below), the Substrate Mix was added to the compound plates first, then the reaction was started by adding the Enzyme Mix.
(§5) After initiating the reaction with either method describe above, the reactions were allowed to proceed for 90 minutes at 20° C. The reactions were then terminated by the addition of 20 μL 100 mM EDTA to each well. 40 μL/well of HTRF detection mix were added to the assay plates. The final concentrations of the detection reagents were: 100 mM HEPES (pH7.5), 0.1 mg/mL BSA, 15 nM streptavidin-labeled allophycocyanin (PerkinElmer), and 1 nM europium-labeled anti-phosphotyrosine antibody (PerkinElmer). Assay plates were left unsealed and were counted in a Wallac Multilabel Counter 1420 (PerkinElmer).
(§6) Compounds under analysis were dissolved in dimethylsulfoxide (DMSO) to 1.0 mM and serially diluted 1 to 3 with DMSO through twelve dilutions. 1 μL of each concentration was transferred to the corresponding well of an assay plate. This creates a final compound concentration range from 0.00027 to 47.6 μM.
(§7) The data for dose responses were plotted as % Inhibition calculated with the data reduction formula 100*(1−(U1−C2)/(C1−C2)) versus concentration of compound where U1 is the unknown value, C1 is the average control value obtained for 4.76% DMSO, and C2 is the average control value obtained for 0.035 M EDTA. Data were fitted with a curve described by:
(§8) where Vmax is the upper asymptote, Y2 is the Y intercept, and K is the IC50. The results for each compound were recorded as pIC50s, calculated as follows: […]
(In general: In TR-FRET formats the signal depends on donor and acceptor labels being close together.)

In another experiment the target is T2, ErbB2 (Homo sapiens, UniProt P04626).
T2 construct: made in house; host or cells: baculovirus expression system
T2 sequence (P04626 23-1255): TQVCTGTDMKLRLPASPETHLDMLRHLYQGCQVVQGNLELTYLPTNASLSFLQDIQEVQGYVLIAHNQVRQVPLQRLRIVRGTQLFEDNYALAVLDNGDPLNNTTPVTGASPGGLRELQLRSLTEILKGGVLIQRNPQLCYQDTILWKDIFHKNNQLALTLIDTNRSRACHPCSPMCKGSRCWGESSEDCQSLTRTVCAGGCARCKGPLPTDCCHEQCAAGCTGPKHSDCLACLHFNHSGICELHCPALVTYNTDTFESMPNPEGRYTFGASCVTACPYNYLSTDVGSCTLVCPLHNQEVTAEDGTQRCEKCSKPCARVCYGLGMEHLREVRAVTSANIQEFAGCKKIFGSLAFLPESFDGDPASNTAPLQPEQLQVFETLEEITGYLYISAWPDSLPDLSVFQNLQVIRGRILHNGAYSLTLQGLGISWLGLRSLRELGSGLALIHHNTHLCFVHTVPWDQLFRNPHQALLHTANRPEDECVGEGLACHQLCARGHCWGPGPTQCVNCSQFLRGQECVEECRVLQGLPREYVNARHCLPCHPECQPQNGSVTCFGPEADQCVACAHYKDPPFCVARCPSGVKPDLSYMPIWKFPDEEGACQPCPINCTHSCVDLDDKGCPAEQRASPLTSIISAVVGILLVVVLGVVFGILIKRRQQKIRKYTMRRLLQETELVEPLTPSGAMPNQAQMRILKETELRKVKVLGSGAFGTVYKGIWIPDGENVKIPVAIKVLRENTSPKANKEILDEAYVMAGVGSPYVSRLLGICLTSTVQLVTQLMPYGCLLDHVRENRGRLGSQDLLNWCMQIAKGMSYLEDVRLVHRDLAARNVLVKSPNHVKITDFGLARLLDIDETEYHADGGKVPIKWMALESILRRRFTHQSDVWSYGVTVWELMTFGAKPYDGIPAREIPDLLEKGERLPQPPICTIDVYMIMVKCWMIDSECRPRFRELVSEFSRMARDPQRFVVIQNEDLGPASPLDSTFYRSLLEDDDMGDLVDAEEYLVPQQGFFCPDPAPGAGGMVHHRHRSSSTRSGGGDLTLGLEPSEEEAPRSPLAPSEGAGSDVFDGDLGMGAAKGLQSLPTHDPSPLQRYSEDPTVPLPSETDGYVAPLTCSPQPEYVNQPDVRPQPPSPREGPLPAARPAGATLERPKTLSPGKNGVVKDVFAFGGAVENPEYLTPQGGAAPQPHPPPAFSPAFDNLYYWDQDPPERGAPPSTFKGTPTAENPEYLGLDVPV
Description: ErbB-2 substrate phosphorylation assay (HTRF). The class given is biochemical. On the procedure: as §1, §2, §3, §4, §5, §6, §7, §8

Another experiment concerns BT474 tumor cells. Description: Method C: Cell Growth Inhibition Assay (CellTiter-Glo), BT474. The format is cell-based. The following applies: Homo sapiens, BT-474, 72 h, 3 days, 4-parameter fit. Here is the method:
(§9) Human breast tumor cells (BT474) were cultured in RPMI (Mediatech 50-011-PB), containing 10% FBS (JRH Biosciences 12176) and 1% penicillin-streptomycin (Invitrogen 15140). Human head and neck tumor cells (HN5) were cultured in high glucose DMEM (Mediatech 50-013-PB) containing 10% FBS and 1% penicillin-streptomycin. Human colon tumor cells (Colo205) were cultured in RPMI (Mediatech 50-020-PB) containing 10% FBS and 1% penicillin-streptomycin. Human melanoma cancer cells (SK-MEL-28) were cultured in EMEM with nonessential amino acids (Mediatech 50-011-PB) containing 10% FBS, 1% sodium pyruvate (JT Baker 3354-04), and 1% penicillin-streptomycin. Human melanoma cancer cells (A375P F11s) were cultured in RPMI (Mediatech 50-020-PB) containing 10% FBS, 1% sodium pyruvate, and 1% penicillin-streptomycin. Human colon cancer cells (HT-29) were cultured in high glucose DMEM (Mediatech 50-013-PB) containing 10% FBS and 1% penicillin-streptomycin. Human melanoma cancer cells (SK-MEL-3) were cultured in McCoy's 5A (50-025-PB) containing 15% FBS, and 1% penicillin-streptomycin. All cell lines were maintained at 37° C. in a humidified 5% CO2, 95% air incubator. Cells were harvested using trypsin/EDTA (Invitrogen 25200), counted using an haemocytometer, and plated. For 96-well assays (using white full-area NUNC plates cat. #136102), cells were plated in 105 μL at the following densities (cells/well): HN5, 500; Colo205, 500; SK-MEL-28, 500; A375P-F11s, 500; HT-29, 500; SK-MEL-3, 500; and BT474, 3000. For 384-well assays (white full-area NUNC plates, cat. #781080), cells were plated in 48 μL at the following densities (cells/well): HN5, 500; Colo205, 500; SK-MEL-28, 500; A375P-F11s, 500; HT29, 500; SK-MEL-3, 500; and BT474, 2000.
(§10) The next day, compounds were diluted as follow: For 96-well assays, 13.5 μL of compound in DMSO were diluted using nine (9) serial 1:3 dilutions of 4.5 μL in 9 μL of DMSO. Medium (270 μl/well of RPMI with 10% FBS and 1% penicillin-streptomycin) was added to the plates. Aliquots (7 μl) were added to cells in the final assay giving a final DMSO concentration of 0.2%. For 384-well assays, 15 μL of compound in DMSO were diluted using nine (9) serial 1:3 dilutions of 5 μL in 10 μL of DMSO, followed by a further dilution of 5 μL of compound with 95 μL of medium, of which 2 μL were added to cells in the final assay giving a final DMSO concentration of 0.2%. Cells were incubated at 37° C., 5% CO2 for 3 days.
(§11) Total ATP was measured (as a surrogate estimate of cell number) using CellTiter-Glo® reagent (Promega G7571). Briefly, plates were removed from the incubator and allowed to equilibrate to room temperature for 30 minutes. CellTiter-Glo® (25 μL or 55 μL for 384-well or 96-well assays, respectively) reagent was added to each well and plates were shaken on an orbital plate shaker for 2 mins. Plates were incubated without shaking for a further 30 mins and read on an LJL Analyst GT reader in luminometer mode with an integration time of 0.5 seconds per well. Percent inhibition of cell growth was calculated relative to DMSO vehicle-treated control wells. Concentration of compound required to give 50% inhibition of vehicle-treated control cell growth (IC50) was interpolated using a 4-parameter fit for determining IC50 using the following equation: Y=A+((B−A)/(1+((C/X)̂D))) where X=IC50.
(In ATP-based viability assays light output follows the ATP content of the culture.)

For a further experiment, the system named is SK-MEL-28 tumor cells. The experiment is described as follows: Method C: Cell Growth Inhibition Assay (CellTiter-Glo), SK-MEL-28. The format is cell-based. The following applies: Homo sapiens, SK-MEL-28, 72 h, 3 days, 4-parameter fit. On the procedure: as §9, §10, §11
The next experiment relates to Colo205 tumor cells. The experiment is described as follows: Method C: Cell Growth Inhibition Assay (CellTiter-Glo), Colo205. The class given is cell-based. The following applies: Homo sapiens, COLO 205, 72 h, 3 days, 4-parameter fit. Here is the method:
as §9, §10, §11

Where [1] appears, read: Method (A): Enzyme Mix incubated with compound at 20° C. for 1 hr, reaction started by adding Substrate Mix.
[2] abbreviates: Method (B): Substrate Mix added to compound first, reaction started by adding Enzyme Mix.

T1 sequence (P00533 25-1210): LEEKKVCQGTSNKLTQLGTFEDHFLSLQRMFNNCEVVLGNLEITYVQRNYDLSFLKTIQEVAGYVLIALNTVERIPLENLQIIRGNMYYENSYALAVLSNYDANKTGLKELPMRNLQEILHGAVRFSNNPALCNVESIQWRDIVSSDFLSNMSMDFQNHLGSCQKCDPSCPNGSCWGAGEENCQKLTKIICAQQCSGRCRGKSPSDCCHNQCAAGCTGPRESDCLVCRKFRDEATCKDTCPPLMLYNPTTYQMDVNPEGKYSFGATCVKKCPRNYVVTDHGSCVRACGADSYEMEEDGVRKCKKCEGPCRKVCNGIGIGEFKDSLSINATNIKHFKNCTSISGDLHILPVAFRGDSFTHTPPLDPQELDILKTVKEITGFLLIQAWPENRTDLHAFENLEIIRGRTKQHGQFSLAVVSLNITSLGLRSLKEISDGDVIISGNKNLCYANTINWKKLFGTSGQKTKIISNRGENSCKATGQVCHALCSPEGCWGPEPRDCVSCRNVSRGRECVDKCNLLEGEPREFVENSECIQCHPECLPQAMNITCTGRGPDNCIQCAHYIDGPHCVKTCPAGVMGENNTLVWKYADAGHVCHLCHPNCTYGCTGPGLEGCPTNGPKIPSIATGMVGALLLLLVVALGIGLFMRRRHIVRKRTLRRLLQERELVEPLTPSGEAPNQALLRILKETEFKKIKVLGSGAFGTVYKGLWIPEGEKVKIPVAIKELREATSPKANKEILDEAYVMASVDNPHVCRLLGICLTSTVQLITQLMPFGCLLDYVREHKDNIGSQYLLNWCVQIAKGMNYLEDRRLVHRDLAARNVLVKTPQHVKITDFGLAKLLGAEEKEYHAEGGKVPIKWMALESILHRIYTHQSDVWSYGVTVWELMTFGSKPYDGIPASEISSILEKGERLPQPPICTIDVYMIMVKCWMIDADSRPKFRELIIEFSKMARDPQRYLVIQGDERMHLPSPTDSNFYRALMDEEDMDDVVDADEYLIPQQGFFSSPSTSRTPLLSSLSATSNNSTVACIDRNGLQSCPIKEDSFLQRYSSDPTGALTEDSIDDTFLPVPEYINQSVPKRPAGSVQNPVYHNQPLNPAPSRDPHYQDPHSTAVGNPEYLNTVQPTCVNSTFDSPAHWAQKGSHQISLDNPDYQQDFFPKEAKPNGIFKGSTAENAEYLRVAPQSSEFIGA

For `Cc1nc(-c2cccc(NC(=O)c3cccc(Cl)c3)c2)c(-c2ccnc(Nc3ccc(OCCN(C)C)c(Cl)c3)n2)s1` [Example 136, 3-Chloro-N-[3-(5-{2-[(3-chloro-4-{[2-(dimethylamino)ethyl]oxy}phenyl)amino]-4-pyrimidinyl}-2-methyl-1,3-thiazol-4-yl)phenyl]benzamide], the IC50 was less than 0.1 µM on EGFR (setting [1]); less than 0.1 µM at ErbB2 (setting [1]); 0.1 to 1 µM in the experiment on BT474 tumor cells; greater than 1 µM in the experiment on SK-MEL-28 tumor cells; greater than 1 µM in the experiment with Colo205 tumor cells.
For the compound `Cc1nc(-c2cccc(NC(=O)c3cccnc3F)c2)c(-c2ccnc(Nc3ccc4c(c3)CN(C)CC4)n2)s1` [Example 137, 2-Fluoro-N-[3-(2-methyl-5-{2-[(2-methyl-1,2,3,4-tetrahydro-7-isoquinolinyl)amino]-4-pyrimidinyl}-1,3-thiazol-4-yl)phenyl]-3-pyridinecarboxamide trifluoroacetate], the half-inhibitory concentration (IC50) at EGFR (setting [1]) was less than 0.1 µM; at ErbB2 (setting [1]), less than 0.1 µM; in the experiment with BT474 tumor cells, 0.1 to 1 µM; with SK-MEL-28 tumor cells, greater than 1 µM; in the experiment on Colo205 tumor cells, greater than 1 µM.
Regarding `CN1CCC(c2nc(-c3cccc(NC(=O)c4c(F)cccc4F)c3)c(-c3ccnc(Nc4ccc5c(c4)CN(C)CC5)n3)s2)CC1` [Example 125, 2,6-Difluoro-N-[3-(2-(1-methyl-4-piperidinyl)-5-{2-[(2-methyl-1,2,3,4-tetrahydro-7-isoquinolinyl)amino]-4-pyrimidinyl}-1,3-thiazol-4-yl)phenyl]benzamide], the IC50 was less than 0.1 µM at EGFR (setting [1]); less than 0.1 µM at ErbB2 (setting [1]); 0.1 to 1 µM with BT474 tumor cells; 0.1 to 1 µM in the experiment with SK-MEL-28 tumor cells; 0.1 to 1 µM with Colo205 tumor cells.
Consider `COc1ccccc1C(=O)Nc1cccc(-c2nc(C)sc2-c2ccnc(Nc3ccc4c(c3)CN(C)CC4)n2)c1` [Example 130, N-[3-(2-Methyl-5-{2-[(2-methyl-1,2,3,4-tetrahydro-7-isoquinolinyl)amino]-4-pyrimidinyl}-1,3-thiazol-4-yl)phenyl]-2-(methyloxy)benzamide], for which the IC50 is less than 0.1 µM on EGFR (setting [1]); less than 0.1 µM on ErbB2 (setting [1]); greater than 1 µM in the experiment with BT474 tumor cells; greater than 1 µM with SK-MEL-28 tumor cells; greater than 1 µM with Colo205 tumor cells.
Regarding `CC(C)c1nc(-c2cccc(NC(=O)c3c(F)cccc3F)c2)c(-c2ccnc(Nc3cccc(OCCN(C)C)c3)n2)s1` [Example 122], the IC50 on EGFR (setting [1]) was less than 0.1 µM; at ErbB2 (setting [1]), less than 0.1 µM; in the experiment on BT474 tumor cells it was 0.1 to 1 µM; in the experiment on SK-MEL-28 tumor cells, greater than 1 µM; in the experiment with Colo205 tumor cells it was greater than 1 µM.
Take `CN(C)c1nc(-c2cccc(NC(=O)c3c(F)cccc3F)c2)c(-c2ccnc(Nc3ccc(OCCN4CCCC4)nc3)n2)s1` [Example 43, N-[3-(2-(Dimethylamino)-5-{2-[(6-{[2-(1-pyrrolidinyl)ethyl]oxy}-3-pyridinyl)amino]-4-pyrimidinyl}-1,3-thiazol-4-yl)phenyl]-2,6-difluorobenzamide]: the IC50 on EGFR (setting [1]) is less than 0.1 µM; at ErbB2 (setting [1]), less than 0.1 µM; in the experiment on SK-MEL-28 tumor cells it was greater than 1 µM; in the experiment on Colo205 tumor cells, 0.1 to 1 µM.
Consider `CCc1nc(-c2cccc(NC(=O)c3c(F)cccc3F)c2)c(-c2ccnc(Nc3ccc(N4CCC(N5CCCCC5)CC4)c(F)c3)n2)s1` [Example 116, N-{3-[5-(2-{[4-(1,4′-Bipiperidin-1′-yl)-3-fluorophenyl]amino}-4-pyrimidinyl)-2-ethyl-1,3-thiazol-4-yl]phenyl}-2,6-difluorobenzamide], for which the IC50 on EGFR (setting [1]) was less than 0.1 µM; at ErbB2 (setting [1]), less than 0.1 µM; in the experiment with SK-MEL-28 tumor cells it was greater than 1 µM; in the experiment on Colo205 tumor cells, 0.1 to 1 µM.
Turning to `O=C(Nc1cccc(-c2ncoc2-c2ccnc(Nc3cccc(F)c3)n2)c1)c1c(F)cccc1F` [Example 141, 2,6-Difluoro-N-[3-(5-{2-[(3-fluorophenyl)amino]-4-pyrimidinyl}-1,3-oxazol-4-yl)phenyl]benzamide], the IC50 on EGFR (setting [2]) and on ErbB2 (setting [2]) was greater than 1 µM each time.
As for `O=C(Nc1cccc(-c2nc(CF)sc2-c2ccnc(Nc3ccc(OCCN4CCCC4)c(F)c3)n2)c1)c1c(F)cccc1F` [Example 127], the 50% inhibitory concentration (IC50) on EGFR (setting [1]) is less than 0.1 µM; at ErbB2 (setting [1]), less than 0.1 µM; with SK-MEL-28 tumor cells, greater than 1 µM; with Colo205 tumor cells, greater than 1 µM.
As to `CN(C)c1nc(-c2cccc(NC(=O)c3c(F)cccc3F)c2)c(-c2ccnc(Nc3ccc(N4CCOCC4)c(Cl)c3)n2)s1` [Example 41, N-{3-[5-(2-{[3-Chloro-4-(4-morpholinyl)phenyl]amino}-4-pyrimidinyl)-2-(dimethylamino)-1,3-thiazol-4-yl]phenyl}-2,6-difluorobenzamide trifluoroacetate], the IC50 is less than 0.1 µM on EGFR (setting [1]), less than 0.1 µM at ErbB2 (setting [1]), greater than 1 µM in the experiment on SK-MEL-28 tumor cells and greater than 1 µM in the experiment with Colo205 tumor cells.

For orientation: IC50 means the concentration needed to halve the response being measured.
